Where “and” joins values, the source holds several entries; their conditions need not be identical. Identical values can stand only once. Counter-ions that a name gives are not always drawn.
Columns and labels:
[1] = biological target: T1, Glycine amidinotransferase, mitochondrial (Rattus norvegicus, UniProt P50442)
T1 sequence (P50442 whole entry): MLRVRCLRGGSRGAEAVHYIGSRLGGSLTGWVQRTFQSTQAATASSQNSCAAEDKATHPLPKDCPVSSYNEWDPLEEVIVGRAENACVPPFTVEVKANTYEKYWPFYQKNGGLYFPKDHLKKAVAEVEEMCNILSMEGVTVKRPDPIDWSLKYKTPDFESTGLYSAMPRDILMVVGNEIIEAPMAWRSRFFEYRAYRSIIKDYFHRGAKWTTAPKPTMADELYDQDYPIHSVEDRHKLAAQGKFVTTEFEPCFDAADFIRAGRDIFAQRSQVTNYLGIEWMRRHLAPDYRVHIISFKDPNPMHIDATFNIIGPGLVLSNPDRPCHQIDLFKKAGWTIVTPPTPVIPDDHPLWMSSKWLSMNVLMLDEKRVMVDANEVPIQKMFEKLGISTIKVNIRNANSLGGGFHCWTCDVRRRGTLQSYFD

Glutamate receptor 3 = Glutamate receptor 3 (Rattus norvegicus, UniProt P19492)
Chain of Glutamate receptor 3 (P19492 whole entry): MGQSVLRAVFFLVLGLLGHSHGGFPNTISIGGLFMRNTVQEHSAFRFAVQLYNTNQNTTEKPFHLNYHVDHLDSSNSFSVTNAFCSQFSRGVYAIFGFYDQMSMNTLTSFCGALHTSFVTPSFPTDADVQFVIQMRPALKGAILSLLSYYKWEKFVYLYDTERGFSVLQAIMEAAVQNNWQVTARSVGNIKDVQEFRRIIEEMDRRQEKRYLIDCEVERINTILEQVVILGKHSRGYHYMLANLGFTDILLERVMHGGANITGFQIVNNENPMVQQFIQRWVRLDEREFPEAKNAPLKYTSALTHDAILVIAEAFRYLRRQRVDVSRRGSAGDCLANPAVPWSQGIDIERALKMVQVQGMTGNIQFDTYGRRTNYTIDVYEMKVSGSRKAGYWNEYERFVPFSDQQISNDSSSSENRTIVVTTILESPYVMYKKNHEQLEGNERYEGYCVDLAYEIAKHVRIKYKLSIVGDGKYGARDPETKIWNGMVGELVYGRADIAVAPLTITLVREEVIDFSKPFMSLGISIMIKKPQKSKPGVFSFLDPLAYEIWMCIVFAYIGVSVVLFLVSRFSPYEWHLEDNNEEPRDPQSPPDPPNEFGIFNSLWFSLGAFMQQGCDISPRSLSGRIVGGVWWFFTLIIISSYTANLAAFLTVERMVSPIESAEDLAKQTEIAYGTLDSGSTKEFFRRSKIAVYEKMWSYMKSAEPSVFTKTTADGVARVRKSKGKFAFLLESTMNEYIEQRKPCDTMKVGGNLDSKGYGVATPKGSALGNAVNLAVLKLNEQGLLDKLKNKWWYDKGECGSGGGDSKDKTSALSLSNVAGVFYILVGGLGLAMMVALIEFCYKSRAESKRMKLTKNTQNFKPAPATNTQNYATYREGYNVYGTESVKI

[2] = biological target: Gamma-aminobutyric acid type B receptor subunit 1 (UniProt Q9Z0U4)
[3] = biological target: Beta-2 adrenergic receptor (Rattus norvegicus, UniProt P10608)
Chain of Beta-2 adrenergic receptor (P10608 whole entry): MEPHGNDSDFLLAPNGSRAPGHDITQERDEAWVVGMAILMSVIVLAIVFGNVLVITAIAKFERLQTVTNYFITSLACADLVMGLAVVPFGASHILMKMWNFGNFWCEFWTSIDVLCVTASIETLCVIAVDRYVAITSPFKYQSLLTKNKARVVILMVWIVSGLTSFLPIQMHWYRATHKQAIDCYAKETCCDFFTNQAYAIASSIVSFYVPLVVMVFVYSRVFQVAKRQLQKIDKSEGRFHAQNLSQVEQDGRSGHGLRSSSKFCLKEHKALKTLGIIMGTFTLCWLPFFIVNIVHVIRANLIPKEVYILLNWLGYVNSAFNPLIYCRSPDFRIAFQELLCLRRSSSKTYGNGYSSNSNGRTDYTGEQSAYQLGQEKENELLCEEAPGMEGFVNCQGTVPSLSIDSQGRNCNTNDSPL

[4] = biological target: 5-hydroxytryptamine receptor 4 (Cavia porcellus, UniProt O70528)
Chain of 5-hydroxytryptamine receptor 4 (O70528 whole entry): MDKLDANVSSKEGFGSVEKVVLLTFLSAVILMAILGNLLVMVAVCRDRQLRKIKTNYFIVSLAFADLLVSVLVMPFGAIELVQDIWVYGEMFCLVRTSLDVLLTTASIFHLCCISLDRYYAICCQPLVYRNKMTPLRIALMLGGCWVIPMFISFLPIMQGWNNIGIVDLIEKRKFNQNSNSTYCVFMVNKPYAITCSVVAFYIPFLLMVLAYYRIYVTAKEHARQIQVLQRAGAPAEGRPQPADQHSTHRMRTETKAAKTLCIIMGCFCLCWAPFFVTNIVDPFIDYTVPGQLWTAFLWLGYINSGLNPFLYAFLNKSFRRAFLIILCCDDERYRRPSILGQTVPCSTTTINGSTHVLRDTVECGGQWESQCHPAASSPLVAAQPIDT

[5] = biological target: 5-hydroxytryptamine receptor 3A (Rattus norvegicus, UniProt P35563)
Chain of 5-hydroxytryptamine receptor 3A (P35563 whole entry): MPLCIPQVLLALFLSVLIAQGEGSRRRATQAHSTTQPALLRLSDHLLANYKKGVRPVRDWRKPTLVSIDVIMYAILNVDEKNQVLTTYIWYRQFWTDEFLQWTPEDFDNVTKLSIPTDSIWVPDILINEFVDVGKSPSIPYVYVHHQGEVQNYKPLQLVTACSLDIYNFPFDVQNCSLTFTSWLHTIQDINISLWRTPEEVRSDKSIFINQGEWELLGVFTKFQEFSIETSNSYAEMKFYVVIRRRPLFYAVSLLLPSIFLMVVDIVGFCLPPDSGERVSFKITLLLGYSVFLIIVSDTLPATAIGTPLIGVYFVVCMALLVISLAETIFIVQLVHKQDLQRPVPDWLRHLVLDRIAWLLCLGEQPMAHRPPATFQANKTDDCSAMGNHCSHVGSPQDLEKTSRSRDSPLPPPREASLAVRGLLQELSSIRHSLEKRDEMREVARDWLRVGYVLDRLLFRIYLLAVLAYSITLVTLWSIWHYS

Adenosine receptor A1 = biological target: T2, Adenosine receptor A1 (Rattus norvegicus, UniProt P25099)
T2 sequence (P25099 whole entry): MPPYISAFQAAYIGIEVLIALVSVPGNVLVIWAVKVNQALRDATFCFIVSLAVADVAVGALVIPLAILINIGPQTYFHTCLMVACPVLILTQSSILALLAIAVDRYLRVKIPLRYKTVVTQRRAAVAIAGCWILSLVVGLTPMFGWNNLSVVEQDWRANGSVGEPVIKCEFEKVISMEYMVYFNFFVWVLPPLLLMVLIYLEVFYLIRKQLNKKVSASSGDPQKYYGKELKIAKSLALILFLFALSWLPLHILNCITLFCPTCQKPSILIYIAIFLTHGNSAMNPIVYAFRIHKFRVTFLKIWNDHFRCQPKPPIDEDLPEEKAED

[6] = biological target: Glutamate receptor ionotropic, kainate 1 (Rattus norvegicus, UniProt P22756)
Chain of Glutamate receptor ionotropic, kainate 1 (P22756 whole entry): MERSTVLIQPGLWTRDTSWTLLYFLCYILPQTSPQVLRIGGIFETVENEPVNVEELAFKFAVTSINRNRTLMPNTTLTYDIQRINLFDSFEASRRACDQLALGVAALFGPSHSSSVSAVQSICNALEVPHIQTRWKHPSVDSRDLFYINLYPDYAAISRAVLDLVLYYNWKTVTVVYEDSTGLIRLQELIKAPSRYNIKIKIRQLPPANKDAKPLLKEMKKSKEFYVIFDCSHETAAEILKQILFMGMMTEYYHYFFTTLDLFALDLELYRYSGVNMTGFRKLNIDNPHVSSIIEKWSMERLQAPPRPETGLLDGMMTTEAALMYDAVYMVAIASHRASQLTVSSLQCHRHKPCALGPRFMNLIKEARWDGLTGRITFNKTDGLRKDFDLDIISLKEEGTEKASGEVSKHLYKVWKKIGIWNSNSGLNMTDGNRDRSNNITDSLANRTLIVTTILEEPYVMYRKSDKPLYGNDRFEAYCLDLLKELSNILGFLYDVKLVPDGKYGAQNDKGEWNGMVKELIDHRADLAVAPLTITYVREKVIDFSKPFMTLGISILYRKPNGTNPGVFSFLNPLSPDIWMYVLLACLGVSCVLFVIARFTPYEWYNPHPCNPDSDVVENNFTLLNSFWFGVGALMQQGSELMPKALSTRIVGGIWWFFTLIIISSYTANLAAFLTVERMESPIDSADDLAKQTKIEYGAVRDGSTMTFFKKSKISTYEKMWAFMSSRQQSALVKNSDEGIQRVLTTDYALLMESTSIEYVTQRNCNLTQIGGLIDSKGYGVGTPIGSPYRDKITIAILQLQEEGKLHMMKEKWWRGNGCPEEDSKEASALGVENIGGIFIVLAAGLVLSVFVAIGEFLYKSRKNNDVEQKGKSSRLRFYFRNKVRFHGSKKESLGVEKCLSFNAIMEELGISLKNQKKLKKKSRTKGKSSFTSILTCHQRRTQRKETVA

[7] = biological target: T3, Type-1 angiotensin II receptor (Oryctolagus cuniculus, UniProt P34976)
T3 sequence (P34976 whole entry): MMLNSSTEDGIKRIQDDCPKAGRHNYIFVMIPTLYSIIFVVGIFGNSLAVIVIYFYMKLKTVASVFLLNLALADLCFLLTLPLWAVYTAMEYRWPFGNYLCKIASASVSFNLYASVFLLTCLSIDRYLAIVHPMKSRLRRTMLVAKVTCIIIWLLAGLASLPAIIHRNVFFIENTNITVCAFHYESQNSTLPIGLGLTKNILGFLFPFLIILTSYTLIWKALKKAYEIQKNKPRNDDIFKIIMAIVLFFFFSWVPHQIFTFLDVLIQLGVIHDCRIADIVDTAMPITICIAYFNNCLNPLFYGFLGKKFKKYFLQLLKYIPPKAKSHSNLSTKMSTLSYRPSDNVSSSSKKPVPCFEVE

Nischarin = Nischarin (Rattus norvegicus, UniProt Q4G017)
Chain of Nischarin (Q4G017 whole entry): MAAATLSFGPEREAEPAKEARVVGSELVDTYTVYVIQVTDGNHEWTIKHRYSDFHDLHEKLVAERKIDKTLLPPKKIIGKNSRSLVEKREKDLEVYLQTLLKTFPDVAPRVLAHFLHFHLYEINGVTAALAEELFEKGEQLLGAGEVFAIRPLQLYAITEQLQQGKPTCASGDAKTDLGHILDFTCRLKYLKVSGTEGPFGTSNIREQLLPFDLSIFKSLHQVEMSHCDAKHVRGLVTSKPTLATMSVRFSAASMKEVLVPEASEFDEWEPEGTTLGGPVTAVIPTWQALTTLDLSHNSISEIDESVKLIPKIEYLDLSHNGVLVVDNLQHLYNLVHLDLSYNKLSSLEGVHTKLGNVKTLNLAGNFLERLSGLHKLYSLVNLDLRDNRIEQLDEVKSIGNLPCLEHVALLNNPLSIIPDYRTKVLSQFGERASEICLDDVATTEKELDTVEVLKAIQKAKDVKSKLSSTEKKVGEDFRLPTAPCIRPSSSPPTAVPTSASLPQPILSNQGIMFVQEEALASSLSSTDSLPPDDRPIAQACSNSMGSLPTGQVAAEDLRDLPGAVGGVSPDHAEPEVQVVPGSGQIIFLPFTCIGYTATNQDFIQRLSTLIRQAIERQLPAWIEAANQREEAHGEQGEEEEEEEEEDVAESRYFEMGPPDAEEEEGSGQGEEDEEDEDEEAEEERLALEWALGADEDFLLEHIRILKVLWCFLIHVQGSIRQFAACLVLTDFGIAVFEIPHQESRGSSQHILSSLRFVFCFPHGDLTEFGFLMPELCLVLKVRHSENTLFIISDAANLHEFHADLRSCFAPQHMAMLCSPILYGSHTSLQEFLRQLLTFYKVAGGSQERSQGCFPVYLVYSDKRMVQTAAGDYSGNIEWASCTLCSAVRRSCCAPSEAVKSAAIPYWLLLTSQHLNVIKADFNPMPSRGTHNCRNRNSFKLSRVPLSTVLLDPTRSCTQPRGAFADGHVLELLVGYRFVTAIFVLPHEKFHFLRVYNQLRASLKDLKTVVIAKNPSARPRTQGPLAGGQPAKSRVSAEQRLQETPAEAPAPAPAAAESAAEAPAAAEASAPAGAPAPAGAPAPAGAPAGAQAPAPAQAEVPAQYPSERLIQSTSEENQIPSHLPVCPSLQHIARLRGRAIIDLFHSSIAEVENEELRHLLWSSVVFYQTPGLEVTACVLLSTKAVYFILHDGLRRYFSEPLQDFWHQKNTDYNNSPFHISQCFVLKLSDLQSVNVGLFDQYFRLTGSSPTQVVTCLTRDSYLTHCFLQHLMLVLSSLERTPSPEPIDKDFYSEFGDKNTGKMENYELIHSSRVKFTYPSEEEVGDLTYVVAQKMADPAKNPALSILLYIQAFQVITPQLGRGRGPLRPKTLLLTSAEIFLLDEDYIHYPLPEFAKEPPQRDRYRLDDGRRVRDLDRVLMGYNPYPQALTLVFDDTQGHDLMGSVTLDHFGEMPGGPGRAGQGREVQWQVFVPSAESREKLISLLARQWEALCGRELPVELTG

[8] = biological target: T4, Glycine receptor subunit alpha-1 (Rattus norvegicus, UniProt P07727)
T4 sequence (P07727 whole entry): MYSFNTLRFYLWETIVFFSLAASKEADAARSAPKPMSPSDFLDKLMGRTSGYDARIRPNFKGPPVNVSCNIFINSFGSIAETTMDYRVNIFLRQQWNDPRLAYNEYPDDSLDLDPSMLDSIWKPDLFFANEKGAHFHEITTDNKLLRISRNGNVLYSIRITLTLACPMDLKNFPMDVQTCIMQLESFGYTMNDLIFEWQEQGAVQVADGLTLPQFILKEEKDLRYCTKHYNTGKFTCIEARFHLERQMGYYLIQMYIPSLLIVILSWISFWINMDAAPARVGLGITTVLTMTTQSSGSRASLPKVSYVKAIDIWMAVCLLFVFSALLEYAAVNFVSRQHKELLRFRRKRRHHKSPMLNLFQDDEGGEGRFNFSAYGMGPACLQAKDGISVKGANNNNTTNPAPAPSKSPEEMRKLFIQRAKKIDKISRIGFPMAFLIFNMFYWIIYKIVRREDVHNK

Adenosine receptor A2a = Adenosine receptor A2a (Rattus norvegicus, UniProt P30543)
Chain of Adenosine receptor A2a (P30543 whole entry): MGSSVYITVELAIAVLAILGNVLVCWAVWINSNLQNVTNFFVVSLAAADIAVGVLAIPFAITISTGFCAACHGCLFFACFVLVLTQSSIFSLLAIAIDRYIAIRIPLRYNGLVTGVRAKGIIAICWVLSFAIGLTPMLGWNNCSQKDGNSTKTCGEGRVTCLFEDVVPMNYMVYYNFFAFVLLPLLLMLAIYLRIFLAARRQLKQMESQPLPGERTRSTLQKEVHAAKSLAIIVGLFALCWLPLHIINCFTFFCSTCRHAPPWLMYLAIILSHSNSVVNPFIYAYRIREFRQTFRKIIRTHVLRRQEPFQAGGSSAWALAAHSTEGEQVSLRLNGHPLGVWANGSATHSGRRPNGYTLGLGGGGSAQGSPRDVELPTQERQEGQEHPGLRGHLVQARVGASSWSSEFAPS

[9] = biological target: T5, Type-2 angiotensin II receptor (Rattus norvegicus, UniProt P35351)
T5 sequence (P35351 whole entry): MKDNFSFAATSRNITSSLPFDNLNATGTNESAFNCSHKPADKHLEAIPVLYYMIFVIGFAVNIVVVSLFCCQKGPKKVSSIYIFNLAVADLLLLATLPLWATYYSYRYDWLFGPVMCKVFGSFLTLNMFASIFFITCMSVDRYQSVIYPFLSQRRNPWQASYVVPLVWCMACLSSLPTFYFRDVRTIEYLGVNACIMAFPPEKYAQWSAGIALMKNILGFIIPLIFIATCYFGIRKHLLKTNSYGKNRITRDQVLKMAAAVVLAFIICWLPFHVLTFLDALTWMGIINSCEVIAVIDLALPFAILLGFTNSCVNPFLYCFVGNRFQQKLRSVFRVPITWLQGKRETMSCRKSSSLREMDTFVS

D(3) dopamine receptor = D(3) dopamine receptor (Bos taurus, UniProt F1N454)
[10] = biological target: Sigma non-opioid intracellular receptor 1 (Mus musculus, UniProt O55242)
[11] = biological target: Glutamate receptor ionotropic, NMDA 1 (Rattus norvegicus, UniProt P35439)
[12] = biological target: Voltage-dependent L-type calcium channel subunit alpha-1C (Rattus norvegicus, UniProt P22002)
[13] = biological target: 5-hydroxytryptamine receptor 1B (Rattus norvegicus, UniProt P28564)
[14] = biological target: 5-hydroxytryptamine receptor 1A (Rattus norvegicus, UniProt P19327)
Histamine H1 receptor = Histamine H1 receptor (Cavia porcellus, UniProt P31389)
[15] = biological target: Sodium channel protein type 10 subunit alpha (Rattus norvegicus, UniProt Q62968)
[16] = biological target: 5-hydroxytryptamine receptor 2A (Rattus norvegicus, UniProt P14842)
[17] = biological target: Muscarinic acetylcholine receptor M2 (Rattus norvegicus, UniProt P10980)
[18] = biological target: Sodium-dependent dopamine transporter (Rattus norvegicus, UniProt P23977)
D(2) dopamine receptor = D(2) dopamine receptor (Rattus norvegicus, UniProt P61169)
[19] = biological target: 5-hydroxytryptamine 1D receptor (Bos taurus, UniProt Q8MI13)
[20] = biological target: Alpha-2C adrenergic receptor (Rattus norvegicus, UniProt P22086)
[21] = biological target: Alpha-1B adrenergic receptor (Rattus norvegicus, UniProt P15823)
[22] = biological target: Gamma-aminobutyric acid (GABA) B receptor 1 (Rattus norvegicus, UniProt Q6MFX8)
[23] = biological target: 5-hydroxytryptamine receptor 2C (Sus scrofa, UniProt G7ZKZ7)
[24] = biological target: Gamma-aminobutyric acid receptor subunit alpha-1 (Rattus norvegicus, UniProt P62813)

Measured: Ki

O=C(CCCN1CCC(O)(c2ccc(Cl)cc2)CC1)c1ccc(F)cc1 [4-[4-(4-Chloro-phenyl)-4-hydroxy-piperidin-1-yl]-1-(4-fluoro-phenyl)-butan-1-one;propionate(HCl)]
> 10 µM: [1] | Glutamate receptor 3 | [2] | [3] | [4] | [5] | Adenosine receptor A1 | [6] | [7] | Nischarin | [8] | Adenosine receptor A2a | [9]

CN1CCN(C2=c3ccccc3=Nc3ccc(Cl)cc3N2)CC1 [6-chloro-10-(4-methylpiperazin-1-yl)-2,9-diazatricyclo[9.4.0.0^{3,8}]pentadeca-1,3(8),4,6,10,12,14-heptaene]
> 10 µM: [1] | Glutamate receptor 3 | [2] | [3] | [4] | Adenosine receptor A1 | [6] | [7] | Nischarin | [8] | Adenosine receptor A2a | [9] | [12]
> 10 µM and 5 µM: [11]
0.88 µM: D(3) dopamine receptor
6.4 µM: [10]

CCN1CCCC1CNC(=O)c1cc(S(=O)(=O)CC)c(N)cc1OC (centres undefined) [NSC_2159]
1.6 µM: [20]
0.0029 µM: D(3) dopamine receptor
0.021 µM: D(2) dopamine receptor
2 µM: [16]
not listed: [2]
> 10 µM: all other assays above

From BindingDB's records for PubMed 8996185 (SynthÉLabo Recherche, 1997)
